Source: US20260069584A1, “METHODS OF TREATING CHRONIC MYELOID LEUKEMIA USING THE TYROSINE KINASE INHIBITOR VODOBATINIB” (Sun Pharma Advanced Research Company Ltd., priority 2022, published 2026)
“Also recorded” adds a separate entry of the source.

Experiment: Part B: treatment-emergent cardiovascular adverse events (CVAEs)
Assay type: in vivo, human
Source text: For the purpose of the present invention, the adverse events were graded as per the National Cancer Institute's, Common Terminology Criteria for Adverse Events (NCI-CTCAE) Version 4.03 and Version 5.0 (https://evs.nci.nih.gov/ftp1/CTCAE/About.html). It is a descriptive terminology which can be utilized for Adverse Event (AE) reporting.
AEs were graded as per NCI-CTCAE Version 5.0. In the present study, along with others most common AEs for which patients were monitored were thrombocytopenia, neutropenia and anemia, any AE reported by the patient after the completion of AE collection period and considered related to the study drug was reported.
Two CVAEs considered related to the compound of Formula I: one Grade 2 hypertension and one fatal intracranial hemorrhage (ICH) with concomitant disease progression to BP CML.
Table 22 below lists the medical history of patients and CVAEs that were reported in the patient during treatment.

[1] = Prior Ponatinib (N = 22), Any grade
[2] = Prior Ponatinib (N = 22), Grade 3/4
[3] = ≤2 prior TKIs (N = 18), Any grade
[4] = ≤2 prior TKIs (N = 18), Grade 3/4
[5] = ≥3 prior TKIs (N = 35), Any grade
[6] = ≥3 prior TKIs (N = 35), Grade 3/4

Cc1ccc(C(=O)NNC(=O)c2c(C)cccc2Cl)cc1C#Cc1cnc2ccccc2c1 [compound of Formula I, N′-(2-chloro-6-methylbenzoyl)-4-methyl-3-[2-(3-quinolyl)ethynyl]-benzohydrazide]
Treatment-emergent cardiovascular AE: Hot flush (%) (Overall (N = 53), Any grade): (1.8%)
Treatment-emergent cardiovascular AE: Hypertension (%) (Overall (N = 53), Any grade): (7.5%)
Treatment-emergent cardiovascular AE: Hypotension (%) (Overall (N = 53), Any grade): (1.8%)
Treatment-emergent cardiovascular AE: Intermittent claudication (%) (Overall (N = 53), Any grade): (1.8%)
Treatment-emergent cardiovascular AE: Intracranial haemorrhage (%) (Overall (N = 53), Any grade): (1.8%)
Treatment-emergent cardiovascular AE: Mouth haemorrhage (%) (Overall (N = 53), Any grade): (1.8%)
Treatment-emergent cardiovascular AE: Palpitations (%) (Overall (N = 53), Any grade): (1.8%)
Treatment-emergent cardiovascular AE: Syncope (%) (Overall (N = 53), Any grade): (1.8%)
Treatment-emergent cardiovascular AE: Transient ischaemic attack (%) (Overall (N = 53), Any grade): (1.8%)
Treatment-emergent cardiovascular AE: Troponin I increased (%) (Overall (N = 53), Any grade): (1.8%)
Treatment-emergent cardiovascular AEs: Deaths (%) (Overall (N = 53), Any grade): (1.8%)
Treatment-emergent cardiovascular AEs: Dose interruption and restart (%) (Overall (N = 53), Any grade): (3.7%)
Treatment-emergent cardiovascular AEs: Leading to drug withdrawal (%) (Overall (N = 53), Any grade): (1.8%)
Treatment-emergent cardiovascular AEs: Related to study drug (%) (Overall (N = 53), Any grade): (3.7%)
Treatment-emergent cardiovascular AEs: Serious Adverse Events (%) (Overall (N = 53), Any grade): (7.5%)
Treatment-emergent cardiovascular AE: Adverse Events Cluster - Cardiac and vascular events (%) (Overall (N = 53), Grade 3/4): (5.6%)
Treatment-emergent cardiovascular AE: Congestive heart failure (%) (Overall (N = 53), Grade 3/4): (1.8%)
Treatment-emergent cardiovascular AE: Hypertension (%) (Overall (N = 53), Grade 3/4): (1.8%)
Treatment-emergent cardiovascular AE: Syncope (%) (Overall (N = 53), Grade 3/4): (1.8%)
Treatment-emergent cardiovascular AEs: Dose interruption and restart (%) (Overall (N = 53), Grade 3/4): (1.8%)
Treatment-emergent cardiovascular AEs: Serious Adverse Events (%) (Overall (N = 53), Grade 3/4): (1.8%)
CVAEs during treatment (Patient 25000603, history: Hypertension, Myocardial ischaemia, prior TKI therapy 3, ponatinib received No): Hypertension
CVAEs during treatment (Patient 35600503, history: Intracranial hemorrhage, prior TKI therapy 3, ponatinib received No): Oral hemorrhage
CVAEs during treatment (Patient 35600706, history: Acute myocardial infarction, myocardial ischemia, prior TKI therapy 3, ponatinib received No): Hypertension
CVAEs during treatment (Patient 41000101, history: Hypertension, prior TKI therapy 3, ponatinib received No): Angina pectoris,; also recorded: Palpitations,; also recorded: Arteriosclerosis
CVAEs during treatment (Patient 84000202, history: Hypertension, prior TKI therapy 4, ponatinib received Yes): Hypertension,; also recorded: Hypotension
CVAEs during treatment (Patient 84000203, history: Hypertension, prior TKI therapy 6, ponatinib received Yes): Hot flush
CVAEs during treatment (Patient 84000206, history: Bradycardia, Hypertension, prior TKI therapy 5, ponatinib received Yes): Angina pectoris
Treatment-emergent cardiovascular AE: Adverse Events Cluster - Cardiac and vascular events (%) [1]: (45.4%)
Treatment-emergent cardiovascular AE: Angina Pectoris (%) [1]: (4.5%)
Treatment-emergent cardiovascular AE: Cerebral haemorrhage (%) [1]: (4.5%)
Treatment-emergent cardiovascular AE: Congestive heart failure (%) [1]: (4.5%)
Treatment-emergent cardiovascular AE: Hot flush (%) [1]: (4.5%)
Treatment-emergent cardiovascular AE: Hypertension (%) [1]: (9.1%)
Treatment-emergent cardiovascular AE: Hypotension (%) [1]: (4.5%)
Treatment-emergent cardiovascular AE: Intermittent claudication (%) [1]: (4.5%)
Treatment-emergent cardiovascular AE: Syncope (%) [1]: (4.5%)
Treatment-emergent cardiovascular AE: Transient ischaemic attack (%) [1]: (4.5%)
Treatment-emergent cardiovascular AE: Troponin I increased (%) [1]: (4.5%)
Treatment-emergent cardiovascular AEs: Serious Adverse Events (%) [1]: (13.6%)
Treatment-emergent cardiovascular AE: Adverse Events Cluster - Cardiac and vascular events (%) [2]: (13.6%)
Treatment-emergent cardiovascular AE: Congestive heart failure (%) [2]: (4.5%)
Treatment-emergent cardiovascular AE: Hypertension (%) [2]: (4.5%)
Treatment-emergent cardiovascular AE: Syncope (%) [2]: (4.5%)
Treatment-emergent cardiovascular AEs: Serious Adverse Events (%) [2]: (4.5%)
CVAEs related to the compound (grade 2 hypertension and fatal intracranial hemorrhage): 2
major CVAEs (highest dose of 204 mg, as long as 24 months): did not result in major CVAEs
permanent discontinuation due to CVAEs (human, in vivo): 1
dose modifications due to CVAEs (in vivo): No dose modifications
patients reporting CVAEs on study (of thirty patients with medical history of CVAEs): 12 patients
grade 3 or 4 CVAEs (out of 53): 5.6%
withdrawal criteria based on QTcF prolongation or safety laboratory tests (patients): No subject reached the subject withdrawal criteria
Treatment-emergent cardiovascular AE: Adverse Events Cluster - Cardiac and vascular events (%) [3]: (5.5%)
Treatment-emergent cardiovascular AE: Congestive heart failure (%) [3]: (5.5%)
Treatment-emergent cardiovascular AE: Adverse Events Cluster - Cardiac and vascular events (%) [4]: (5.5%)
Treatment-emergent cardiovascular AE: Congestive heart failure (%) [4]: (5.5%)
Treatment-emergent cardiovascular AE: Adverse Events Cluster - Cardiac and vascular events (%) [5]: (37.1%)
Treatment-emergent cardiovascular AE: Angina Pectoris (%) [5]: (5.7%)
Treatment-emergent cardiovascular AE: Arteriosclerosis (%) [5]: (2.8%)
Treatment-emergent cardiovascular AE: Cerebral haemorrhage (%) [5]: (2.8%)
Treatment-emergent cardiovascular AE: Hot flush (%) [5]: (2.8%)
Treatment-emergent cardiovascular AE: Hypertension (%) [5]: (11.4%)
Treatment-emergent cardiovascular AE: Hypotension (%) [5]: (2.8%)
Treatment-emergent cardiovascular AE: Intermittent claudication (%) [5]: (2.8%)
Treatment-emergent cardiovascular AE: Intracranial haemorrhage (%) [5]: (2.8%)
Treatment-emergent cardiovascular AE: Mouth haemorrhage (%) [5]: (2.8%)
Treatment-emergent cardiovascular AE: Palpitations (%) [5]: (2.8%)
Treatment-emergent cardiovascular AE: Syncope (%) [5]: (2.8%)
Treatment-emergent cardiovascular AE: Transient ischaemic attack (%) [5]: (2.8%)
Treatment-emergent cardiovascular AE: Troponin I increased (%) [5]: (2.8%)
Treatment-emergent cardiovascular AE: Ventricular Extrasystoles (%) [5]: (2.8%)
Treatment-emergent cardiovascular AEs: Deaths (%) [5]: (2.8%)
Treatment-emergent cardiovascular AEs: Dose interruption and restart (%) [5]: (5.7%)
Treatment-emergent cardiovascular AEs: Leading to drug withdrawal (%) [5]: (2.8%)
Treatment-emergent cardiovascular AEs: Related to study drug (%) [5]: (5.7%)
Treatment-emergent cardiovascular AEs: Serious Adverse Events (%) [5]: (11.4%)
Treatment-emergent cardiovascular AE: Adverse Events Cluster - Cardiac and vascular events (%) [6]: (5.7%)
Treatment-emergent cardiovascular AE: Hypertension (%) [6]: (2.8%)
Treatment-emergent cardiovascular AE: Syncope (%) [6]: (2.8%)
Treatment-emergent cardiovascular AEs: Dose interruption and restart (%) [6]: (2.8%)
Treatment-emergent cardiovascular AEs: Serious Adverse Events (%) [6]: (2.8%)
